Source: patent US8466104B2, “Therapeutically active alpha MSH analogues” (AbbVie Inc., priority 2005, dated 2013)

Legend:
[1] = test system: LPS induced cytokine release and pulmonary hypertension in pigs; test: Inhibition of LPS induced cytokine release and pulmonary hypertension in pigs in vivo (experimental setup 4); set-up: species or system pig; conditions: 200 μg/kg single iv bolus
Method: Inhibition of LPS Induced Cytokine Release and Pulmonary Hypertension in Pigs in vivo.
Female Landrace pigs (˜30 kg) are fasted overnight but allowed free access to water. Then the pigs are premedicated with intramuscular ketamine (10 mg/kg) and midazolam (0.25 mg/kg). Anesthesia is induced with intravenous ketamine (5 mg/kg). The pigs are orally intubated, and anesthesia is maintained with a continuous intravenous infusion of fentanyl (60 μg/kg/h and midazolam (6 mg/kg/h). The animals are ventilated with a volume-controlled ventilator (Servo 900 ventilator; Siemens Elema, Solna, Sweden) with a positive end-expiratory pressure of 5 cm H2O. Tidal volume is kept at 10-15 ml/kg, and the respiratory rate adjusted (20-25 breaths/min) to maintain normocapnia (arterial carbon dioxide tension [PaCO2] in the range of 34-45 mmHg). Ventilation is performed with oxygen in air aimed tot reach an arterial oxygen tension (PaO2) higher than 105 mmHg. One arterial and 2 venous sheaths are placed in the carotid artery and corresponding veins for infusion, blood pressure measurements through fluid filled catheter, blood sampling and for introducing catheters.
Localization of the balloon-tipped catheter is determined by observing the characteristic pressure trace on the monitor as it is advance through the right side of the heart into the pulmonary artery as well as by x-ray. […]

[2] = test system: LPS induced TNF-α production by human leucocytes (PBMC); test: Inhibition of LPS induced TNF-a production by human leucocytes in vitro (experimental setup 1); assay type: cell-based; conditions: for dose dependent reduction of LPS induced TNF-a accumulation / inhibitory effect on TNF-a accumulation compared to native a-MSH / LPS induced TNF-a accumulation, % of the maximal response (LPS-Vehicle): human leucocyte suspension; for LPS induced TNF-a accumulation, % of the maximal response (LPS-Vehicle): 10 ng LPS/mL, 18 hours, maximal effect (10^−7 M); for concentration at which the maximal inhibitory effect on LPS-induced TNF-α production was achieved: human lymphocyte suspension
Method: Inhibition of LPS Induced TNF-a Production by Human Leucocytes In Vitro
20 mL human blood is collected in vacutainer tubes containing EDTA. PBMC is isolated using Ficoll-Paque Plus as in Amersham's Instruction 71-7167-00 AD, 2002-06. PBMC is counted using Tryphan Blue Solution (Sigma) and incubated in RPMI 1640, (Applichem), supplemented with 10 mM Hepes (Sigma), 2 mM L-glutamin (Sigma), 0.1% BSA (Sigma) and 50U/50 μg/mL Penicillin/Streptomycin (Sigma) in the concentration 5×10^5 cells/mL. The isolated PBMC is incubated in a humidified 5% CO2, 95% air atmosphere, at 37° C., in 24 well flat-bottomed plates (Corning Incorporated) with medium, 10 ng LPS/mL (Sigma), and test compound. After 18 hours the samples are centrifuged, and TNF-α in the supernatants is measured using Tumour Necrosis Factor Alpha [(h)TNF-α] from Human Biotrak ELISA System (Amersham).
The samples are incubated as following per donor: • PBMC's in RPMI (Time Control) • PBMC's with 10 ng LPS/mL (Vehicle) • PBMC's, 10 ng LPS/mL, 10^−17M a-MSH or a-MSH analogue • PBMC's, 10 ng LPS/mL, 10^−15M a-MSH or a-MSH analogue • PBMC's, 10 ng LPS/mL, 10^−13M a-MSH or a-MSH analogue • PBMC's, 10 ng LPS/mL, 10^−11M a-MSH or a-MSH analogue • PBMC's, 10 ng LPS/mL, 10^−9M a-MSH or a-MSH analogue • PBMC's, 10 ng LPS/mL, 10^−7M a-MSH or a-MSH analogue
All samples are diluted from an initial stock solution between 1.4×10^−4M and 1.8×10^−3M. All solutions are handled in BSA coated vials in order to protect against binding of the compound to the surface of the vials.
Data is presented as mean±SE. The effect of test compounds on LPS induced TNF-a liberation is expressed as percentage of the TNF-a accumulation in the LPS-vehicle group. All comparisons are analysed with Student's unpaired t-test. Differences are considered significant at probability levels (p) of 0.05.

| Substance | plasma concentrations of TNFa after LPS infusion [1] | maximal increase in pulmonary artery pressure (PAP) ([1]; LPS infusion) [mmHg] | dose dependent reduction of LPS induced TNF-a accumulation [2] | inhibitory effect on TNF-a accumulation compared to native a-MSH [2] | LPS induced TNF-a accumulation, % of the maximal response (LPS-Vehicle) [2] [%] | concentration at which the maximal inhibitory effect on LPS-induced TNF-α production was achieved [2] | concentration at which the maximal inhibitory effect on LPS-induced TNF-α production was achieved ([2]; listed as α-MSH) |
| --- | --- | --- | --- | --- | --- | --- | --- |
| Ac-Lys-Lys-Lys-Lys-Lys-Lys-Ser-Tyr-Ser-Met-Glu-His-Phe-Arg-Trp-Gly-Lys-Pro-Val-NH2 (Ac-KKKKKKSYSMEHFRWGKPV-NH2) [a-MSH analogue #1] | marked reduction in plasma concentrations of TNFa | 8±2 | dose dependently reduce | markedly more pronounced | 47±2 | 10^−7 M |  |
| Ac-Lys-Lys-Lys-Lys-Lys-Lys-Ser-Tyr-Ser-Nle-Glu-His-(D-Phe)-Arg-Trp-Gly-Lys-Pro-Val-NH2 (KKKKKKSYSXEHFRWGKPV; N-acetyl, Nle, D-Phe, C-amide) [a-MSH analogue #2] |  |  | dose dependently reduce | markedly more pronounced | 42±111 | 10^−7 M |  |
| Ac-Lys-Lys-Lys-Lys-Lys-Lys-Ser-Tyr-Ser-Nle-Glu-His-D-Nal-Arg-Trp-Gly-Lys-Pro-Val-NH2 (KKKKKKSYSXEHXRWGKPV; not fully specified; N-acetyl, Nle, D-Nal, C-amide) [a-MSH analogue #3] |  |  | dose dependently reduce | markedly more pronounced | 53±13 |  |  |
| Ser-Tyr-Ser-Met-Glu-His-Phe-Arg-Trp-Gly-Lys-Pro-Val [a-MSH, reference compound] |  |  | dose dependently reduce |  | 73±9 |  | 10^−7 M |
